These results are taken from article PMC4629079 (Acta Pharmaceutica Sinica. B, 2014).

Where only a bound is given, the exact number is not on record here.

One assay deals with Cox B3. As to the kind of experiment: Anti-Coxsackie B3 CPE inhibitory assay in Vero cells. The class given is cell-based, Coxsackie viruses (Cox B3 Nancy strain).
Conditions: not given
For the compound `COC(=O)c1cc2ccc(NC(C)=O)cc2[nH]1` [Compound 14e, Methyl 6-acetamido-1H-indole-2-carboxylate], the “anti-Cox B3 activity (in words)” value is reported as “showed anti-Cox B3 activity”.

In the case of `COC(=O)c1cc2ccc(N)cc2[nH]1` [Compound 14f, Methyl 6-amino-1H-indole-2-carboxylate], the “anti-Cox B3 activity (in words)” value is listed as “showed anti-Cox B3 activity”.

Consider `COC(=O)c1cc2ccc(N(C)C)cc2[nH]1` [Compound 15e, Methyl 6-(dimethylamino)-1H-indole-2-carboxylate], for which the “anti-Cox B3 activity (in words)” value is “showed anti-Cox B3 activity”.

Staying with this assay, now noted: Cox B3, 158TCID50; CPE, Reed and Muench.
For orientation: IC50 means the concentration needed to halve the response being measured. Take `C=CCOc1cc(N)cc2[nH]c(C(=O)OC)cc12` [Compound 6f, Methyl 4-(allyloxy)-6-amino-1H-indole-2-carboxylate]: the IC50 is 30.1 µM.

In turn, `COC(=O)c1cc2ccc(N(C)C)cc2[nH]1` [Compound 15e, Methyl 6-(dimethylamino)-1H-indole-2-carboxylate] returned an IC50 of 44.7 µM.

Regarding `CCCOc1ccc(N)c2[nH]c(C(=O)OC)cc12` [Compound 18f, Methyl 7-amino-4-propoxy-1H-indole-2-carboxylate], the IC50 was found to be 29.9 µM.

Regarding “Methyl 6-acetimidamido-4-methoxy-1H-indole-2-carboxylate [Compound 1e]”, the IC50 is over 254 µM.

The assay is the same for the next values; noted with them: Vero, Cox B3, 158TCID50; CPE, Reed and Muench.
`COC(=O)c1cc2c(OC)cc(N)cc2[nH]1` [Compound 1f, Methyl 6-amino-4-methoxy-1H-indole-2-carboxylate]: the IC50 was over 33.7 µM.

In turn, `COC(=O)c1cc2c(OCc3ccccc3)cc(NC(C)=O)cc2[nH]1` [Compound 2e, Methyl 6-acetamido-4-(benzyloxy)-1H-indole-2-carboxylate] returned an IC50 of over 21.9 µM.

As for `COC(=O)c1cc2c(OCc3ccccc3)cc(N)cc2[nH]1` [Compound 2f, Methyl 6-amino-4-(benzyloxy)-1H-indole-2-carboxylate], half-maximal inhibition (IC50) was put at 1.59 µM.

Take `COC(=O)c1cc2c(OCc3ccc(F)cc3)cc(N)cc2[nH]1` [Compound 3f, Methyl 6-amino-4-(4-fluorobenzyloxy)-1H-indole-2-carboxylate]: the IC50 stood at 4.55 µM.

`COC(=O)c1cc2c(OCc3ccc(OC)cc3)cc(N)cc2[nH]1` [Compound 4f, Methyl 6-amino-4-(4-methoxybenzyloxy)-1H-indole-2-carboxylate] displayed an IC50 of over 7.58 µM.

In the case of `COC(=O)c1cc2c(OCC3CCCCC3)cc(N)cc2[nH]1` [Compound 5f, Methyl 6-amino-4-(cyclohexylmethoxy)-1H-indole-2-carboxylate], the IC50 was over 2.71 µM.

Regarding `C=CCOc1cc(N)cc2[nH]c(C(=O)OC)cc12` [Compound 6f, Methyl 4-(allyloxy)-6-amino-1H-indole-2-carboxylate], the IC50 was under 50 µM.

The compound `COC(=O)c1cc2ccc(NC(C)=O)cc2[nH]1` [Compound 14e, Methyl 6-acetamido-1H-indole-2-carboxylate] came in with an IC50 of 72.8 µM.

As for `COC(=O)c1cc2ccc(N)cc2[nH]1` [Compound 14f, Methyl 6-amino-1H-indole-2-carboxylate], the IC50 was 67.5 µM. The IC50 values of the last two compounds are within 1.5-fold of each other.

`COC(=O)c1cc2ccc(N(C)C)cc2[nH]1` [Compound 15e, Methyl 6-(dimethylamino)-1H-indole-2-carboxylate]: the IC50 was under 50 µM.

`CCCOc1ccc(N)c2[nH]c(C(=O)OC)cc12` [Compound 18f, Methyl 7-amino-4-propoxy-1H-indole-2-carboxylate] came in with an IC50 of under 50 µM.

The next assay concerns HSV-1. Description: Anti-HSV-1 CPE assay in Vero cells. The class given is cell-based, HSV-1 virus.
Conditions: not given
Regarding `COC(=O)c1cc2ccc(N(C)C)cc2[nH]1` [Compound 15e, Methyl 6-(dimethylamino)-1H-indole-2-carboxylate], the “activity towards HSV-1 (in words)” value was “showed activity”.

The same assay, now with this note: HSV-1, 100TCID50; CPE, Reed and Muench.
“Methyl 6-acetimidamido-4-methoxy-1H-indole-2-carboxylate [Compound 1e]” came in with an IC50 of over 254 µM.

Staying with this assay, now noted: Human alphaherpesvirus 1, Vero.
Compound `COC(=O)c1cc2c(OC)cc(N)cc2[nH]1` [Compound 1f, Methyl 6-amino-4-methoxy-1H-indole-2-carboxylate] yielded an IC50 of over 33.7 µM.

Compound `COC(=O)c1cc2c(OCc3ccccc3)cc(NC(C)=O)cc2[nH]1` [Compound 2e, Methyl 6-acetamido-4-(benzyloxy)-1H-indole-2-carboxylate] displayed an IC50 of over 21.9 µM.

`COC(=O)c1cc2c(OCc3ccccc3)cc(N)cc2[nH]1` [Compound 2f, Methyl 6-amino-4-(benzyloxy)-1H-indole-2-carboxylate]: the IC50 is over 2.78 µM.

Consider `COC(=O)c1cc2c(OCc3ccc(F)cc3)cc(N)cc2[nH]1` [Compound 3f, Methyl 6-amino-4-(4-fluorobenzyloxy)-1H-indole-2-carboxylate], for which the IC50 is over 7.87 µM.

Take `COC(=O)c1cc2c(OCc3ccc(OC)cc3)cc(N)cc2[nH]1` [Compound 4f, Methyl 6-amino-4-(4-methoxybenzyloxy)-1H-indole-2-carboxylate]: the IC50 is over 7.58 µM.

With `COC(=O)c1cc2c(OCC3CCCCC3)cc(N)cc2[nH]1` [Compound 5f, Methyl 6-amino-4-(cyclohexylmethoxy)-1H-indole-2-carboxylate], the IC50 is over 8.15 µM.

Take `C=CCOc1cc(N)cc2[nH]c(C(=O)OC)cc12` [Compound 6f, Methyl 4-(allyloxy)-6-amino-1H-indole-2-carboxylate]: the IC50 is over 30.1 µM.

As to `COC(=O)c1cc2ccc(NC(C)=O)cc2[nH]1` [Compound 14e, Methyl 6-acetamido-1H-indole-2-carboxylate], the IC50 was over 287 µM.

`COC(=O)c1cc2ccc(N)cc2[nH]1` [Compound 14f, Methyl 6-amino-1H-indole-2-carboxylate] gave an IC50 of over 117 µM.

Consider `COC(=O)c1cc2ccc(N(C)C)cc2[nH]1` [Compound 15e, Methyl 6-(dimethylamino)-1H-indole-2-carboxylate], for which 102 µM corresponded to half-maximal inhibition (IC50).

For the compound `CCCOc1ccc(N)c2[nH]c(C(=O)OC)cc12` [Compound 18f, Methyl 7-amino-4-propoxy-1H-indole-2-carboxylate], the IC50 was over 29.9 µM.

A further assay deals with A/FM/1/47. Description: Anti-influenza A CPE inhibitory assay in MDCK cells. The class given is cell-based, influenza A/FM/1/47(H1N1).
Conditions: not given
In the case of `COC(=O)c1cc2ccc(NC(C)=O)cc2[nH]1` [Compound 14e, Methyl 6-acetamido-1H-indole-2-carboxylate], the “anti-influenza A activity (in words)” value was “showed anti-influenza A activity”.

`COC(=O)c1cc2ccc(N)cc2[nH]1` [Compound 14f, Methyl 6-amino-1H-indole-2-carboxylate]: the “anti-influenza A activity (in words)” value is “showed anti-influenza A activity”.

With `COC(=O)c1cc2ccc(N(C)C)cc2[nH]1` [Compound 15e, Methyl 6-(dimethylamino)-1H-indole-2-carboxylate], the “anti-influenza A activity (in words)” value is listed as “showed anti-influenza A activity”.

Still in this assay, the particulars now being: Influenza A virus, MDCK, […]; CPE, Reed and Muench.
On to `COC(=O)c1cc2c(OC)cc(N)cc2[nH]1` [Compound 1f, Methyl 6-amino-4-methoxy-1H-indole-2-carboxylate], for which the IC50 was under 52 µM.

`COC(=O)c1cc2c(OCc3ccccc3)cc(NC(C)=O)cc2[nH]1` [Compound 2e, Methyl 6-acetamido-4-(benzyloxy)-1H-indole-2-carboxylate] showed an IC50 of over 65.7 µM.

`COC(=O)c1cc2c(OCc3ccccc3)cc(N)cc2[nH]1` [Compound 2f, Methyl 6-amino-4-(benzyloxy)-1H-indole-2-carboxylate] displayed an IC50 of over 25.1 µM.

Turning to `COC(=O)c1cc2c(OCc3ccc(F)cc3)cc(N)cc2[nH]1` [Compound 3f, Methyl 6-amino-4-(4-fluorobenzyloxy)-1H-indole-2-carboxylate], the IC50 is over 70.8 µM.

For `COC(=O)c1cc2c(OCc3ccc(OC)cc3)cc(N)cc2[nH]1` [Compound 4f, Methyl 6-amino-4-(4-methoxybenzyloxy)-1H-indole-2-carboxylate], the IC50 was over 205 µM.

On to `COC(=O)c1cc2c(OCC3CCCCC3)cc(N)cc2[nH]1` [Compound 5f, Methyl 6-amino-4-(cyclohexylmethoxy)-1H-indole-2-carboxylate], for which the IC50 was over 8.15 µM.

`C=CCOc1cc(N)cc2[nH]c(C(=O)OC)cc12` [Compound 6f, Methyl 4-(allyloxy)-6-amino-1H-indole-2-carboxylate] returned an IC50 of under 52 µM.

Take `COC(=O)c1cc2ccc(NC(C)=O)cc2[nH]1` [Compound 14e, Methyl 6-acetamido-1H-indole-2-carboxylate]: the IC50 was found to be 95.8 µM.

`COC(=O)c1cc2ccc(N)cc2[nH]1` [Compound 14f, Methyl 6-amino-1H-indole-2-carboxylate]: the IC50 was determined as 7.53 µM.

For `COC(=O)c1cc2ccc(N(C)C)cc2[nH]1` [Compound 15e, Methyl 6-(dimethylamino)-1H-indole-2-carboxylate], the IC50 worked out at 102 µM. This IC50 is about 14-fold higher than that of the compound before.

Compound `CCCOc1ccc(N)c2[nH]c(C(=O)OC)cc12` [Compound 18f, Methyl 7-amino-4-propoxy-1H-indole-2-carboxylate] returned an IC50 of over 3.31 µM.

The assay is the same for the next values; noted with them: […]; CPE, Reed and Muench.
On to `COC(=O)c1cc2c(OC)cc(N)cc2[nH]1` [Compound 1f, Methyl 6-amino-4-methoxy-1H-indole-2-carboxylate], for which the IC50 was 33.7 µM. That is a double-digit micromolar value.

On to “Methyl 6-acetimidamido-4-methoxy-1H-indole-2-carboxylate [Compound 1e]”, for which inhibition was half-maximal at 254 µM (IC50).

The next assay relates to B/Jifang/13/97. Description: Anti-influenza B CPE assay. The class given is cell-based.
Conditions: not given
In the case of `COC(=O)c1cc2ccc(N)cc2[nH]1` [Compound 14f, Methyl 6-amino-1H-indole-2-carboxylate], the “antiviral activity against the influenza B strain (in words)” value is reported as “displayed antiviral activity”.

“Methyl 6-acetimidamido-4-methoxy-1H-indole-2-carboxylate [Compound 1e]”: the IC50 was determined as 254 µM and the “antiviral activity against the influenza B strain (in words)” value is on record as “displayed antiviral activity”.

Still in this assay, the particulars now being: Influenza B virus.
With `COC(=O)c1cc2c(OC)cc(N)cc2[nH]1` [Compound 1f, Methyl 6-amino-4-methoxy-1H-indole-2-carboxylate], the IC50 is over 33.7 µM.

Regarding `C=CCOc1cc(N)cc2[nH]c(C(=O)OC)cc12` [Compound 6f, Methyl 4-(allyloxy)-6-amino-1H-indole-2-carboxylate], the IC50 was over 30.1 µM.

With `COC(=O)c1cc2ccc(NC(C)=O)cc2[nH]1` [Compound 14e, Methyl 6-acetamido-1H-indole-2-carboxylate], the IC50 was over 95.8 µM.

The compound `COC(=O)c1cc2ccc(N)cc2[nH]1` [Compound 14f, Methyl 6-amino-1H-indole-2-carboxylate] showed an IC50 of 13 µM.

Consider `COC(=O)c1cc2ccc(N(C)C)cc2[nH]1` [Compound 15e, Methyl 6-(dimethylamino)-1H-indole-2-carboxylate], for which the IC50 was over 102 µM.
